{"source": "patent US7220784B2", "about": "“Substituted stilbenes and their reactions” (priority 2000, dated 2007)", "key": {"[1]": {"tested_on": "H460 human lung cancer xenografts", "assay": "Anti-tumour efficacy in xenografts of H460 human lung cancer", "assay_type": "in vivo, mice", "conditions": "H460 human lung cancer xenograft", "protocol": "(§1) (2) Competition for the colchicine binding site on tubulin. The figure quoted represents the % of ^3H-colchicine bound following co-incubation of test compound and ^3H-cochicine with isolated tubulin. Where ester pro-drugs were used the experiments were carried out in the presence and absence of porcine liver esterase. • (3) Cytotoxicity/growth inhibition assay. This was carried out by the MTT assay. • (4) Permeability (shape-change) assay in endothelial cells. This was carried out using a method based on that of Watts et al. (Anticancer Res., 17, 71–75, (1997)). This involved the diffusion of a fluorescently labelled dextran through a barrier of endothelial cells (HUVEC) grown to confluence on a porous membrane. […] The anti-vascular effects of the agents were monitored by either positron emission tomography (PET) or by histologogical examination following treatment of mice bearing T50:80 murine breast tumours, or H460 human lung tumours. • (6) Anti-tumour efficacy of agents was determined in xenografts of H460 human lung cancer. Animals (n=5) were trated either with 5 daily injections and tumour size measured with time following treatment. • (7) The pharmacokinetic profile of agents was determined in mice following injection with drug. Blood was taken at various times following treatment and analysed by HPLC with UV detection. […]"}, "[2]": {"tested_on": "liver metastatic T50:80 tumours", "assay": "Anti-vascular effects, histological examination of T50:80 tumours", "assay_type": "in vivo, mice", "protocol": "as §1"}, "HUVEC": {"tested_on": "HUVEC", "assay": "Growth inhibition studies using HUVEC", "assay_type": "cell-based, human", "procedure,_shortened": "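MTT cytotoxicity/growth-inhibition assay in human cell lines including A2780, A2780/ADR, H460 and HUVEC.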"}}}
{"smiles": "COc1ccc(C=Cc2cc(OC)c(OC)c(OC)c2)cc1F", "note": "[Compound 97-64H]", "values": [{"measurement": "anti-tumour activity in vivo", "setting": "[1]", "result": "shows anti-tumour activity in vivo"}, {"measurement": "examination of tumours for vascular damage", "setting": "[2]; 2/3 or 3/4 of MTD, 2 hr, 4 hr, 24 hr, 48 hr after administration", "result": "tumour necrosis, blocked vessels, infiltration with red blood cells"}, {"measurement": "time by which vascular effects are seen", "setting": "[2]; mouse, in vivo", "result": "≤ 2", "unit": "h"}, {"measurement": "concentration necessary to inhibit the growth of HUVEC cells in vitro", "setting": "HUVEC", "result": 0.001, "unit": "mM"}, {"measurement": "IC50", "setting": "HUVEC; Homo sapiens, HUVEC", "result": 2.4, "unit": "nM"}]}
